Measurements from patent US10258603B2 (priority 2014, dated 2019).

Target: T1, BRD4(BD1) (Homo sapiens, UniProt O60885)
T1 construct: 42-168 was cloned, expressed, and purified to; His; made in house
Experiment: BRD4 AlphaLisa Binding Assay
Description: IC50 Measurements for Inhibitors Using BRD4 AlphaLisa Binding Assay

Row | SMILES | IC50 [µM]
1 | Cn1cc(C(=O)NCC2CCCCN2C(=O)OC(C)(C)C)c2cc[nH]c2c1=O (stereo not shown) [Example 132] | 13
2 | CC(C)c1cccc(N2CCC(N(C)C(=O)c3cn(C)c(=O)c4[nH]ccc34)CC2)c1 [Example 179, N-[1-(3-isopropylphenyl)-4-piperidyl]-N,6-dimethyl-7-oxo-1H-pyrrolo[2,3-c]pyridine-4-carboxamide] | 2.1
3 | Cn1cc(C(=O)NCCc2ccccc2)c2cc[nH]c2c1=O [Example 258] | 0.8
4 | CCOC(C)CNC(=O)c1cn(C)c(=O)c2[nH]ccc12 (stereo not shown) [Example 117] | 4
5 | Cc1ccccc1CCNC(=O)c1cn(C)c(=O)c2[nH]ccc12 [Example 127] | 1.2
6 | Cn1cc(C(=O)NCCCN2CCOCC2)c2cc[nH]c2c1=O [Example 31, 6-methyl-N-(3-morpholinopropyl)-7-oxo-1H-pyrrolo[2,3-c]pyridine-4-carboxamide] | 17
7 | COC(=O)[C@@H](NC(=O)c1cn(C)c(=O)c2[nH]ccc12)C1CCCCC1 [Example 93] | 2.9
8 | CC(NC(=O)c1cn(C)c(=O)c2[nH]ccc12)c1ccccc1F (stereo not shown) [Example 116] | 4.3
9 | Cn1cc(C(=O)N2CCC(C(F)(F)F)CC2)c2cc[nH]c2c1=O [Example 57, 6-methyl-4-[4-(trifluoromethyl)piperidine-1-carbonyl]-1H-pyrrolo[2,3-c]pyridin-7-one] | 4.1
10 | Cn1cc(C(=O)N2CCC(c3ccccn3)CC2)c2cc[nH]c2c1=O [Example 55, 6-methyl-4-[4-(2-pyridyl)piperidine-1-carbonyl]-1H-pyrrolo[2,3-c]pyridin-7-one] | 9.5
11 | Cn1cc(C(=O)NCc2cccs2)c2cc[nH]c2c1=O [Example 262] | 3.3
12 | COc1cccc(CN2CCC(N(C)C(=O)c3cn(C)c(=O)c4[nH]ccc34)CC2)c1 [Example 222] | 16
13 | C[C@@H](NC(=O)c1cn(C)c(=O)c2[nH]ccc12)C1CCCCC1 [Example 94] | 3.1
14 | Cn1cc(C(=O)N[C@H](C(=O)O)c2ccccc2)c2cc[nH]c2c1=O [Example 96] | 5
15 | Cn1cc(C(=O)NCCN2CCOCC2)c2cc[nH]c2c1=O [Example 8, 6-methyl-N-(2-morpholinoethyl)-7-oxo-1H-pyrrolo[2,3-c]pyridine-4-carboxamide] | 4.9
16 | Cn1cc(C(=O)N2CCC(C#N)CC2)c2cc[nH]c2c1=O [Example 64, 1-(6-methyl-7-oxo-1H-pyrrolo[2,3-c]pyridine-4-carbonyl)piperidine-4-carbonitrile] | 8
17 | CN(CC1CCN(Cc2ccccc2Cl)CC1)C(=O)c1cn(C)c(=O)c2[nH]ccc12 [Example 198] | 1.1
18 | CN(C(=O)c1cn(C)c(=O)c2[nH]ccc12)C1CCN(Cc2ccccc2C#N)CC1 [Example 215] | 3.8
19 | CC(C)C(NC(=O)c1cn(C)c(=O)c2[nH]ccc12)c1ccccc1 (stereo not shown) [Example 123] | 11
20 | CC(NC(=O)c1cn(C)c(=O)c2[nH]ccc12)c1ccc(Cl)cc1 (stereo not shown) [Example 126] | 3.2
21 | Cn1cc(C(=O)NC2CCCCc3ccccc32)c2cc[nH]c2c1=O (stereo not shown) [Example 265, 6-methyl-7-oxo-N-(6,7,8,9-tetrahydro-5Hbenzo[7]annulen-5-yl)-6,7-dihydro-1H-pyrrolo[2,3-c]pyridine-4-carboxamide] | 5.3

Second part, the compound after the results:

Row | IC50 [µM] | SMILES
22 | 11 | COC[C@@H](NC(=O)c1cn(C)c(=O)c2[nH]ccc12)c1ccccc1 [Example 95]
23 | 16 | CC(c1ccccc1)N(C)C(=O)c1cn(C)c(=O)c2[nH]ccc12 (stereo not shown) [Example 128]
24 | 6.4 | Cn1cc(C(=O)N2CCC(Cc3cccnc3)CC2)c2cc[nH]c2c1=O [Example 46, 6-methyl-4-[4-(3-pyridylmethyl)piperidine-1-carbonyl]-1H-pyrrolo[2,3-c]pyridin-7-one]
25 | 9.8 | CN1CCN(CCNC(=O)c2cn(C)c(=O)c3[nH]ccc23)CC1 [Example 32, 6-methyl-N-[2-(4-methylpiperazin-1-yl)ethyl]-7-oxo-1H-pyrrolo[2,3-c]pyridine-4-carboxamide]
26 | 1.2 | COc1ccccc1C(C)NC(=O)c1cn(C)c(=O)c2[nH]ccc12 (stereo not shown) [Example 119]
27 | 3.8 | C[C@@H](NC(=O)c1cn(C)c(=O)c2[nH]ccc12)c1ccccc1 [Example 256, (R)-6-methyl-7-oxo-N-(1-phenylethyl)-6,7-dihydro-1Hpyrrolo[2,3-c]pyridine-4-carboxamide]
28 | 8.4 | Cn1cc(C(=O)NCc2ccc(S(C)(=O)=O)cc2)c2cc[nH]c2c1=O [Example 92]
29 | 16 | Cn1cc(C(=O)N2CCC(n3cnc4ccccc43)CC2)c2cc[nH]c2c1=O [Example 50, 4-[4-(benzimidazol-1-yl)piperidine-1-carbonyl]-6-methyl-1H-pyrrolo[2,3-c]pyridin-7-one]
30 | 2.7 | COc1ccc(CNC(=O)c2cn(C)c(=O)c3[nH]ccc23)cc1 [Example 261]
31 | 17 | Cn1cc(C(=O)NCC2CCOCC2)c2cc[nH]c2c1=O [Example 101]

Target: T2, BRD9 (Homo sapiens, UniProt Q9H8M2)
T2 construct: 134-239 was cloned, expressed, and purified to homogeneity; Flag; made in house
T2 sequence (Q9H8M2 134-239 limits assumed): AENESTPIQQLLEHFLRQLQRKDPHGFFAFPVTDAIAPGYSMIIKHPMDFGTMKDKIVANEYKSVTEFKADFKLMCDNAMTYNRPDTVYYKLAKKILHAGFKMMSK
Experiment: BRD9 AlphaLisa Binding Assay
Protocol: IC50 Measurements for Inhibitors Using BRD9 AlphaLisa Binding Assay His/Flag epitope tagged BRD9134-239 was cloned, expressed, and purified to homogeneity. […] After 20 minutes incubation at room temperature AlphaLisa Streptavidin Acceptor Beads (Perkin-A[…]) and AlphaLisa Nickel donor beads (Perkin AS 10 ID) were added to a final concentration of 15 ug/mL each.

Row | SMILES | IC50 [µM]
32 | C/C=C/Cn1cc(C(=O)NCc2ccccc2)c2cc[nH]c2c1=O [Example 260] | 0.18
33 | Cn1cc(C(=O)NCC2CCCCCC2)c2cc[nH]c2c1=O [Example 103] | 0.49
34 | CC(C)[C@H](NC(=O)c1cn(C)c(=O)c2[nH]ccc12)C(N)=O [Example 98] | 0.55
35 | Cn1cc(C(=O)NCC2CCCCC2)c2cc[nH]c2c1=O [Example 86] | 0.16
36 | CC=CCn1cc(C(=O)NCCN2CCN(C)CC2)c2cc[nH]c2c1=O [Example 12, 6-but-2-enyl-N-[2-(4-methylpiperazin-1-yl)ethyl]-7-oxo-1H-pyrrolo[2,3-c]pyridine-4-carboxamide] | 0.84
37 | Cn1cc(C(=O)NC2COCc3ccccc32)c2cc[nH]c2c1=O (stereo not shown) [Example 121] | 0.1
38 | CN(C(=O)c1cn(C)c(=O)c2[nH]ccc12)C1CCN(c2nccc(C#N)n2)CC1 [Example 146, N-[1-(4-cyanopyrimidin-2-yl)-4-piperidyl]-N,6-dimethyl-7-oxo-1H-pyrrolo[2,3-c]pyridine-4-carboxamide] | 1.6
39 | CC(C)CCN1CCC(N(C)C(=O)c2cn(C)c(=O)c3[nH]ccc23)CC1 [Example 217] | 4.7
40 | CC1CC(C)CN(CCNC(=O)c2cn(C)c(=O)c3[nH]ccc23)C1 (stereo not shown) [Example 33, N-[2-(3.5-dimethyl-1-piperidyl)ethyl]-6-methyl-7-oxo-1H-pyrrolo[2,3-c]pyridine-4-carboxamide] | 5.4
41 | Cn1cc(C(=O)N[C@@H](C(N)=O)c2ccccc2)c2cc[nH]c2c1=O [Example 97] | 0.49
42 | CN1CCC(NC(=O)c2cn(C)c(=O)c3[nH]ccc23)C1 (stereo not shown) [Example 6, 6-methyl-N-(1-methylpyrrolidin-3-yl)-7-oxo-1H-pyrrolo[2,3-c]pyridine-4-carboxamide] | 1.5
43 | CCCCn1cc(C(=O)NCC2CCN(C)CC2)c2cc[nH]c2c1=O [Example 248] | 3.3
44 | CC(NC(=O)c1cn(C)c(=O)c2[nH]ccc12)C1CC1 (stereo not shown) [Example 112] | 0.46
45 | CC=CCn1cc(C(=O)NC2(C)CCCCC2)c2cc[nH]c2c1=O [Example 18, 6-but-2-enyl-N-(1-methylcyclohexyl)-7-oxo-1H-pyrrolo[2,3-c]pyridine-4-carboxamide] | 2.1
46 | CC(NC(=O)c1cn(C)c(=O)c2[nH]ccc12)c1ccncc1 (stereo not shown) [Example 115] | 0.64
47 | Cn1cc(C(=O)N[C@H](C(N)=O)c2ccccc2)c2cc[nH]c2c1=O [Example 90] | 0.3

Results, then the compound that gave them:

Row | IC50 [µM] | SMILES
48 | 0.22 | CC(NC(=O)c1cn(C)c(=O)c2[nH]ccc12)c1ccc(F)cc1 (stereo not shown) [Example 129]
49 | 1.6 | Cn1cc(C(=O)NC(C)(C)c2ccccc2)c2cc[nH]c2c1=O [Example 131]
50 | 0.92 | CC=CCn1cc(C(=O)NCCCN2CCN(C)CC2)c2cc[nH]c2c1=O [Example 9, 6-but-2-enyl-N-[3-(4-methylpiperazin-1-yl)propyl]-7-oxo-1H-pyrrolo[2,3-c]pyridine-4-carboxamide]
51 | 0.28 | Cn1cc(C(=O)NCC2CN(C(=O)OC(C)(C)C)CCO2)c2cc[nH]c2c1=O (stereo not shown) [Example 134]
52 | 2.9 | Cn1cc(C(=O)NC2COCC2c2ccc(F)cc2)c2cc[nH]c2c1=O (stereo not shown) [Example 124]
53 | 0.44 | CC(NC(=O)c1cn(C)c(=O)c2[nH]ccc12)c1ccc2c(c1)OCCO2 (stereo not shown) [Example 120]
54 | 8 | CN1CCN(C(=O)c2cn(C)c(=O)c3[nH]ccc23)CC1 [Example 38, 6-methyl-4-(4-methylpiperazine-1-carbonyl)-1H-pyrrolo[2,3-c]pyridin-7-one]
55 | 4.3 | C=CCn1cc(C(=O)N(C)C2CCN(c3nccc(C(F)(F)F)n3)CC2)c2cc[nH]c2c1=O [Example 159, 6-allyl-N-methyl-7-oxo-N-[1-[4-(trioromethyl)pyrimidin-2-yl]-4-piperidyl]-1H-pyrrolo[2,3-c]pyridine-4-carboxamide]
